Here are results for three compounds from patent publication US20230364230A1, “COMBINATION THERAPY FOR CANCER” (ENGMAB SÀRL, priority 2020, published 2023).

Structures are written as SMILES.

One experiment concerns NKG2D+ NK cells. Description: Surface expression of NKG2D on NK cells in DLBCL patient PBMC. The format is cell-based, human. Conditions: PBMCs treated 1 hour prior to anti-CD3 stimulation for 3 days. As for the experimental part:
Surface expression of NKG2D was measured by flow cytometry gated on live CD3-CD19-CD14-CD56+CD16+NK cells.

Experiment [1] has as its system H929 target cells. As to the kind of experiment: Protein 1 induced ADCC after pretreatment of both PBMC and H929 target cells. The format is cell-based, human. The method, then: PBMCs from a healthy donor were pre-incubated for 48 hours in the presence of CC-92480 or CC-220 (iberdomide) or a DMSO control. Additionally, H929 cells were also pre-incubated separately from the PBMCs for 48 hours with CELMoD. For CC-92480, PBMC and H929 were incubated in 0.1 nM, 1 nM or 10 nM concentrations. For CC-220, cells were incubated in 1 nM or 10 nM concentrations. Cells were also pre-incubated in with a DMSO control. After pretreatment, PBMC and H929 were combined based on their matched treatments and incubated for an additional 18 hours or overnight in the presence of a dose range of Protein 1, 0 nM to 10 nM. Samples were analyzed via flow cytometry for H929 depletion. Specific lysis was calculated as following: (1−((test sample H929 count)/(H929 count in DMSO control without PBMC and without Protein 1)))*100. PBMC and H929 cells were pretreated separately with varying doses of CC-92480 (FIG. 14A) or CC-220 (FIG. 14B) or a DMSO control for 48 hours. After pretreatment, PBMCs and H929 target cells were combined and co-cultured overnight with a dose range of Protein 1 at 0 nM to 10 nM. H929 cell depletion was analyzed by flow cytometry. […] Pretreatment of both PBMC and H929 target cells with CC-92480 or CC-220 (iberdomide) enhanced Protein 1 induced ADCC.

For experiment [2], the system named is H929 target cells. Description: Protein 1 induced ADCC after pretreatment of PBMCs with different concentrations (H929 lysis, flow cytometry). The format is cell-based, human. Conditions: for % lysis with Protein 1: 0.1 nM Protein 1, % change from DMSO control + Protein 1; for % lysis without Protein 1: % change from DMSO control. The method, then: PBMCs from two healthy donors were pre-incubated for 24 hours or 48 hours in the presence of CC-92480 or a DMSO control. CC-92480 was added at 0.001 nM, 0.01 nM, 0.1 nM, 1 nM and 10 nM concentrations. After pretreatment, PBMCs were incubated for an additional 18 hours or overnight in the presence of H929 target cells with or without the addition of 0.1 nM of Protein 1. Samples were analyzed via flow cytometry for H929 depletion. Specific lysis was calculated as following: (1−((test sample H929 count)/(H929 count in DMSO control without Protein 1)))*100. PBMCs from two healthy donors were pre-incubated for 24 hours or 48 hours in the presence of CC-220 or a DMSO control. CC-220 was added at 0.01 nM, 0.1 nM, 1 nM, 10 nM and 100 nM concentrations. After pretreatment, PBMCs were incubated for an additional 18 hours or overnight in the presence of H929 target cells with or without the addition of 0.1 nM of Protein 1. Samples were analyzed via flow cytometry for H929 depletion. Specific lysis was calculated as following: (1−((test sample H929 count)/(H929 count in DMSO control without Protein 1)))*100. […] Data is normalized to % change of sample from the control treated DMSO sample+/−Protein 1. For % lysis without Protein 1, the control sample is PBMC pretreated with DMSO+H929. For % lysis with Protein 1, the control sample is PBMC pretreated with DMSO+H929+0.1 nM of Protein 1.

Experiment [3] concerns H929 target cells. Description: Protein 1 induced ADCC after pretreatment of PBMCs with single concentration, Protein 1 dose range. Type of experiment: cell-based, human. Conditions: PBMCs pretreated 24 or 48 hours with 0.1 nM CC-92480 or 1 nM CC-220; Protein 1 0 nM to 10 nM. As for the experimental part: PBMCs from a healthy donor were preincubated for 24 hours or 48 hours in the presence of CC-92480 at 0.1 nM or CC-220 (iberdomide) at 1 nM or a DMSO control. After pretreatment, PBMCs were incubated for an additional 18 hours or overnight in the presence of H929 target cells with concentrations of Protein 1 ranging from 0 nM to 10 nM. Samples were analyzed via flow cytometry for H929 depletion. Specific lysis was calculated as following: (1−((test sample H929 count)/(H929 count in DMSO control without Protein 1)))*100. PBMCs were pretreated 0.1 nM of CC-92480 or 1 nM of CC-220 or DMSO control for either 24 hours (FIG. 13A) or 48 hours (FIG. 13B). After pretreatment, PBMCs were cultured with H929 target cells and 0 nM to 10 nM of Protein 1 overnight. H929 lysis was determined via flow cytometry. Pretreatment of PBMCs with single concentration of CC-92480 or CC-220 enhanced Protein 1 induced ADCC.

Another experiment relates to TMD8 cells. As to the kind of experiment: HLA-DR and CD86 expression in TMD8 cells by flow cytometry. Type of experiment: cell-based. Conditions: 48 hours. The method, then: DLBCL cell line TMD8 was treated with avadomide for 48 hours. […] The result corroborated the ChIP-seq analysis (FIG. 10B).
(In general: A flow cytometer gives signals particle by particle.)

The target of experiment [4] is T1, Aiolos (Homo sapiens, UniProt Q96SW2+Q9UKT9). As to the kind of experiment: Aiolos expression by western blot in DLBCL cells. The format is cell-based. More on the design: endogenous in cells; host or cells: Karpas 422, WSU-DLCL2, U2932 and TMD8 DLBCL cells. The conditions noted are these: Karpas 422, WSU-DLCL2, U2932 and TMD8 cells, 0.1, 1, or 10 μM. The method, then: (§1) Karpas 422, WSU-DLCL2, U2932 and TMD8 cells were treated with avadomide at a concentration of 0.1, 1, or 10 μM. The expression of Aiolos, Ikaros, […] and IRF4 were measured by western blot.

Experiment [5] addresses T2, Ikaros (Homo sapiens, UniProt Q13422+Q96SW2). Description: Degradation of Ikaros in primary NK cells (intracellular staining, flow cytometry). The format is cell-based. More on the design: endogenous in cells; host or cells: primary human NK cells gated from healthy-donor PBMCs. Conditions: PBMCs from healthy donors (n=7), dose titrations, 5 hours. The method, then: (§2) Intracellular staining of Aiolos and Ikaros in primary human NK cells was performed by flow cytometry gating on live, CD3-CD4-CD8-CD56+CD16+NK cell populations.

Experiment [6] addresses T1, Aiolos. Description: Degradation of Aiolos in primary NK cells (intracellular staining, flow cytometry). Type of experiment: cell-based. More on the design: endogenous in cells; host or cells: primary human NK cells gated from healthy-donor PBMCs. The conditions noted are these: PBMCs from healthy donors (n=7), dose titrations, 5 hours. The method, then:
as §2

The next experiment has as its system NK cells. Description: NK cell proliferation in DLBCL patient PBMCs stimulated with anti-CD3. The format is cell-based, human. Conditions: PBMCs treated 1 hour prior to anti-CD3 stimulation for 3 days. As for the experimental part:
Percentage of NK cells was analyzed via flow cytometry gated on live CD3-CD19-CD14-CD56+CD16+NK cells. Cytokinic NK cells were […]16^low and cytotoxic NK cells were CD56^lowCD16^high populations.

Experiment [7] deals with T2, Ikaros. As to the kind of experiment: Ikaros expression by western blot in DLBCL cells. Type of experiment: cell-based. Further details: endogenous in cells; host or cells: Karpas 422, WSU-DLCL2, U2932 and TMD8 DLBCL cells. Conditions: Karpas 422, WSU-DLCL2, U2932 and TMD8 cells, 0.1, 1, or 10 μM. The method, then: as §1
Background: Immunoblotting shows a protein as a band on a membrane.

Experiment [8] concerns interferon stimulated genes. Description: Induction of interferon stimulated genes in DLBCL cells. Conditions: correlated with degradation of Aiolos and Ikaros. Type of experiment: cell-based. As for the experimental part: as §1
The induction of interferon stimulated genes was correlated with the degradation of Aiolos and Ikaros. […] Such direct regulation was shown using Chromatin Immunoprecipitation sequencing (ChIP-seq) analysis and generic methods, see, e.g., Hagner et al, Blood, 126(6):779-789 (2015), which is incorporated by reference in its entirety.

Setting [9] is: pretreatment 0.1 nM, 24 hour, donor 1.
Where [10] appears, read: pretreatment 0.1 nM, 24 hour, donor 2.
The mark [11] stands for this setting: pretreatment 0.1 nM, 48 hour, donor 1.
Setting [12] is: pretreatment 0.1 nM, 48 hour, donor 2.
Setting [13] is: pretreatment 10 nM, 24 hour, donor 1.
[14] abbreviates: pretreatment 10 nM, 24 hour, donor 2.
The mark [15] stands for this setting: pretreatment 10 nM, 48 hour, donor 1.
The mark [16] stands for this setting: pretreatment 10 nM, 48 hour, donor 2.

T1 sequence (Q9UKT9 whole entry): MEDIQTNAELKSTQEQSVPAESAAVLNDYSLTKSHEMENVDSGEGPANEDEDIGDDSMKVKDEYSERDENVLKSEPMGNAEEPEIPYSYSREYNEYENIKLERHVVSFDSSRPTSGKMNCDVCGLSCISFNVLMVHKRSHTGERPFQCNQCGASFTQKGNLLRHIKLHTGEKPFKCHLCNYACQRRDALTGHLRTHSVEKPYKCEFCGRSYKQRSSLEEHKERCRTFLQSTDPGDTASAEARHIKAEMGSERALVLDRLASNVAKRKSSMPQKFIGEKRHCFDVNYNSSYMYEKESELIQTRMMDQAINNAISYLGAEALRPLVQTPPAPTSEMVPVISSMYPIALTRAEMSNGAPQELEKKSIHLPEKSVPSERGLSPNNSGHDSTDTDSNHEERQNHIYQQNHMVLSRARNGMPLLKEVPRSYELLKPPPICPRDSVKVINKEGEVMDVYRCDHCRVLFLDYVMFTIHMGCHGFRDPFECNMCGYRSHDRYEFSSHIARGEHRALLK
T1 sequence (Q96SW2 whole entry): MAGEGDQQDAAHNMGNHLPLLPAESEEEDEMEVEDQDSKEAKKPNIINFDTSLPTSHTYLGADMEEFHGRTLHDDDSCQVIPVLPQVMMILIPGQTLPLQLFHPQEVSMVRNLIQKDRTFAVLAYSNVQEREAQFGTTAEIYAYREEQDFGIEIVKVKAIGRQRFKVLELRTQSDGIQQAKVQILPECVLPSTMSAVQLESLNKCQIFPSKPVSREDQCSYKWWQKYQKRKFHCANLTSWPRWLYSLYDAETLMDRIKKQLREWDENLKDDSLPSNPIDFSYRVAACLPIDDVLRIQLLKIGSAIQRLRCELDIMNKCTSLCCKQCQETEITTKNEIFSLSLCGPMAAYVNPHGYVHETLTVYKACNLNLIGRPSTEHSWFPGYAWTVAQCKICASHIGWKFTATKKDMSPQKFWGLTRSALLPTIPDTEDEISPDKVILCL
T1 sequence (Q16531 whole entry partner): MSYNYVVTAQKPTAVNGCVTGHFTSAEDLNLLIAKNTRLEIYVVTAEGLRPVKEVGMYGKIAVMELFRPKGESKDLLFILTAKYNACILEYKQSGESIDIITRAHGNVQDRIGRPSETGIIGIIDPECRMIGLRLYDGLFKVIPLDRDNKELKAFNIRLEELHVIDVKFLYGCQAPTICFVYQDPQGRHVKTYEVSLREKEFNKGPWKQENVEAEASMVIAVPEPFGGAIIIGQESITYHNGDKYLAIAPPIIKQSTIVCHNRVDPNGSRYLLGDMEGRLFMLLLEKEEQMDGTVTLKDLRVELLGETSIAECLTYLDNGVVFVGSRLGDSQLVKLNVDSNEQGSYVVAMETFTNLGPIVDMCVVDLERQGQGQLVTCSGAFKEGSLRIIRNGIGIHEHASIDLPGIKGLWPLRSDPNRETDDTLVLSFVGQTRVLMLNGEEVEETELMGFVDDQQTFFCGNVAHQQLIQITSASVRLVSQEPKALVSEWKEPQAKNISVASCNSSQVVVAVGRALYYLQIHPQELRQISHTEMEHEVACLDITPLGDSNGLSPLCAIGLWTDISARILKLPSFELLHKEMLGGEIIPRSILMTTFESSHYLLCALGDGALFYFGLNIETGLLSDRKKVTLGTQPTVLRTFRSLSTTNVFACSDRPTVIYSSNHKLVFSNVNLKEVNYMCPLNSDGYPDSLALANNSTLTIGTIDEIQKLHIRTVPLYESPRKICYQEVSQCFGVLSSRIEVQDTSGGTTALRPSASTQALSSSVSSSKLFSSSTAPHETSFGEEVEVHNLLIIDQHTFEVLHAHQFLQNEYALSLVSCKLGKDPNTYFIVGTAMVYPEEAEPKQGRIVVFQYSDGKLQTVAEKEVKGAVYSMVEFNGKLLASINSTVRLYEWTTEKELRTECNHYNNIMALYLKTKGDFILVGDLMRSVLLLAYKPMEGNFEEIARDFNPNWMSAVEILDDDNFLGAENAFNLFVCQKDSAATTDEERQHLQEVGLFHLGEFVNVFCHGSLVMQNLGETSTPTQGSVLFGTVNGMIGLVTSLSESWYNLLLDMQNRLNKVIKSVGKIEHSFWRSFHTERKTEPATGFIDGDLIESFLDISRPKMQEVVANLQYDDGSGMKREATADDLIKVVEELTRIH
T2 sequence (Q13422 whole entry): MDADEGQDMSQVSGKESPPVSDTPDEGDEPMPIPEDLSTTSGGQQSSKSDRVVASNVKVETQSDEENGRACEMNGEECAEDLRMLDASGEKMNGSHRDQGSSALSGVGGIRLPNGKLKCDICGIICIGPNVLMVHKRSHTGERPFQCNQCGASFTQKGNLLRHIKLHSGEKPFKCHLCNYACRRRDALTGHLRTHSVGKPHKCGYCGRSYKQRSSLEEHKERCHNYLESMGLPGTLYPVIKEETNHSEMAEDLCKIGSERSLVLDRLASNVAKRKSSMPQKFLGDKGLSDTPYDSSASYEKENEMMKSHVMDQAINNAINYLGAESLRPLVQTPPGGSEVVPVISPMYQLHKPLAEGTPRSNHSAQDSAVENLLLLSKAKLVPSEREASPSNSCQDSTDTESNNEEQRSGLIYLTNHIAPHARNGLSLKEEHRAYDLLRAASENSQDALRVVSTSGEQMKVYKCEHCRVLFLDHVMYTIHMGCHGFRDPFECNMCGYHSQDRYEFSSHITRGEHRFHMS
T2 sequence (Q96SW2 whole entry): as the sequence (Q96SW2 whole entry) above
T2 sequence (Q16531 whole entry partner): as the sequence (Q16531 whole entry partner) above

As to `Nc1cccc2c1CN(C1CCC(=O)NC1=O)C2=O` (centres unmarked) [lenalidomide, 3-(7-amino-3-oxo-1H-isoindol-2-yl)piperidine-2,6-dione], the “NKG2D+ NK cells in DLBCL patient PBMC” value in the experiment on NKG2D+ NK cells is on record as “significantly expanded”.

As for `N#Cc1ccc(N2CCN(Cc3ccc(COc4cccc5c4CN([C@H]4CCC(=O)NC4=O)C5=O)cc3)CC2)c(F)c1` [CC-92480, (S)-4-(4-(4-(((2-(2,6-dioxopiperidin-3-yl)-1-oxoisoindolin-4-yl)oxy)methyl)benzyl)piperazin-1-yl)-3-fluorobenzonitrile], the “susceptibility of H929 target cells to lysis” value in the experiment with H929 target cells [1] (H929 target cells pretreated 48 hours, most notably at Protein 1 0.01-0.1 nM) is given as “more susceptible to lysis”. For the same compound, the “Protein 1 induced ADCC (H929 cell depletion)” value with H929 target cells [1] (PBMC and H929 pretreated separately 48 hours, Protein 1 0 nM to 10 nM) is “enhanced”. In addition, the “Protein 1 induced ADCC (H929 lysis)” value in the experiment on H929 target cells [2] (PBMCs pretreated 24 or 48 hours at different concentrations, 0.1 nM Protein 1 overnight) is “enhanced”; with H929 target cells [3] it was “enhanced”. Also, the “% lysis difference with Protein 1” value with H929 target cells [2] (setting [9]) was 48.85%; with H929 target cells [2] (setting [10]), 76.64%; with H929 target cells [2] (setting [11]), 79.40%; with H929 target cells [2] (setting [12]), 36.79%; with H929 target cells [2] (setting [13]) it was 27.75%; in the experiment with H929 target cells [2] (setting [14]), −33.32%. Moreover, the “% lysis difference with Protein 1” value in the experiment on H929 target cells [2] (setting [15]) is listed as 72.35%; in the experiment with H929 target cells [2] (setting [16]), 52.72%. The “% lysis with Protein 1” value in the experiment with H929 target cells [2] (setting [9]) is 58.27%; with H929 target cells [2] (setting [10]), 67.82%; in the experiment with H929 target cells [2] (setting [11]), 64.54%; in the experiment on H929 target cells [2] (setting [12]), 82.02%; in the experiment on H929 target cells [2] (setting [13]), 28.79%; in the experiment with H929 target cells [2] (setting [14]) it was −43.51%. The figures for the “% lysis with Protein 1” value in the experiment on H929 target cells [2] (setting [15]) and with H929 target cells [2] (setting [16]) were 42.46% and 59.57%, respectively. In addition, the “% lysis without Protein 1” value in the experiment on H929 target cells [2] (setting [9]) is 9.42%; with H929 target cells [2] (setting [10]), −8.82%; with H929 target cells [2] (setting [11]) it was −14.86%; in the experiment with H929 target cells [2] (setting [12]), 45.23%; in the experiment on H929 target cells [2] (setting [13]), 1.04%; in the experiment with H929 target cells [2] (setting [14]), −10.19%. For the same compound, the figures for the “% lysis without Protein 1” value in the experiment on H929 target cells [2] (setting [15]) and with H929 target cells [2] (setting [16]) were −29.89% and 6.85%, respectively.

On to `Cc1nc2cccc(N)c2c(=O)n1C1CCC(=O)NC1=O` (centres unmarked) [avadomide, 3-(5-amino-2-methyl-4-oxoquinazolin-3(4H)-yl)piperidine-2,6-dione], for which, in the experiment on TMD8 cells, the “expression of CD86” value was “enhanced expression” and the “expression of HLA-DR” value is “enhanced expression”. Also, at Aiolos [4], the “degradation of Aiolos in DLBCL cells” value was “mediated degradation”. The “degradation of Ikaros in primary NK cells” value on Ikaros [5] is given as “mediates degradation”. Further, the “degradation of Aiolos in primary NK cells” value on Aiolos [6] was “mediates degradation”. Also, the “NK cell proliferation in DLBCL patient samples” value in the experiment with NK cells was “dose dependently enhanced”. In the experiment with NKG2D+ NK cells, the “NKG2D+ NK cells in DLBCL patient PBMC” value was “significantly expanded”. In addition, the “degradation of Ikaros in DLBCL cells” value on Ikaros [7] is recorded as “mediated degradation”. For the same compound, the “induction of interferon stimulated genes in DLBCL cells” value in [8] was “induction”.
